Assay results reported in US12377069B2, “Compounds, compositions, methods of using, and methods for preparing compounds” (UNIVERSITY OF LOUISVILLE RESEARCH FOUNDATION, INC., priority 2018, dated 2025).

Key:
[1] = test system: colon cancer cell line (SW480); assay: Proliferation assay with 5FU; details: for effect on cell proliferation, compound alone: without 5FU
NF-κB = NF-κB EMSA assay; type: cell-based, mouse; details: LPS 50 ng/mL, 6 hr
Protocol: NF-κB EMSA assay: RAW 264.7 cells or BMDM were plated in 100 mm dishes (1×10^6) in DMEM supplemented with 10% fetal bovine serum (FBS), 100 U/ml penicillin, and […]. Cells were allowed to grow for 24 hr and after incubation, cells were treated with LPS (50 ng/mL) with and without UroA (50 μM) and UAS03 (50 μM) for 6 hr. After treatments, culture medium was removed and washed with PBS. Cells were scraped and pelleted down in PBS. Supernatant was discarded and pellet was used for isolation of nuclear and cytosolic protein using NE-PER Nuclear and Cytoplasmic kit (Thermo Scientific; Cat #78833). Later nuclear protein (2 μg) was used for EMSA using Non-Radioactive EMSA Kits with IR Fluo-Probes for Nuclear factor kappa B p65 (Viagene Biotech Inc Cat #IRTF282 60).

BMDM = assay: Nrf2-dependent pathways in macrophages; type: cell-based, mouse; details: 50 μM
Protocol: The data is separately presented for each time point (No TNBS− Solid black line; Veh+TNBS− Solid red line; UroA+TNBS− Solid blue line; UAS03+TNBS− Solid purple line). The data is separately presented for each time point. (No TNBS− Solid black line; Veh+TNBS− Solid red line; UroA+TNBS− Solid blue line; UAS03+TNBS− Solid purple line). (C-G) UroA/UAS03 activate Nrf2-dependent pathways in BMDM. (C) Wild type BMDM were isolated and cultured for 7 days. BMDM were treated with Veh (0.01% DMSO) or UroA or UAS03 (50 μM) for 6 h and total RNA was isolated. Nrf2 levels were measured using SyBR green Real Time PCR method. (D) Veh or UroA or UAS03 treated BMDM cell lysates were immunoblotted for Nrf2. (E) The nuclear and cytosolic fractions of BMDMs were immnunobloted for Nr2. Lamin B and β-actin were used as normalizing proteins. […] The expression of Nrf2 was determined by immunofluorescence staining using anti-Nrf2 followed by secondary antibody tagged with Alexa-488 dye and DAPI was used to stain nucleus. The fluorescence images were captured using Nikon A1R confocal microscope at 60× magnification and green fluorescence (n=>15 cells) was measured using Nikon elements software. […] NF-κB activation was evaluated by EMSA assays. […] The fold change over basal was calculated using its own control. […]

Oc1ccc2c(c1)COc1cc(O)ccc1-2 [UAS03, 6H-benzo[c]chromene-3,8-diol]
fold less 5FU drug concentration to reach the similar effect ([1]; combination with 5FU): more than 32 fold | increase in the inhibition of cell proliferation ([1]; with 3.12 μM of 5FU): approximately 6 fold | cell viability in combination with 5FU ([1]; with 5FU): 40% | effect on cell proliferation, compound alone [1]: minimal effect | LPS-induced NF-κB activation in macrophages (NF-κB): reduced the NF-κB activation | Nrf2 expression, nuclear translocation and HO1 in macrophages (BMDM): upregulated Nrf2 expression and induced its nuclear translocation

O=c1oc2cc(O)ccc2c2ccc(O)cc12 [UroA, 3,8-dihydroxy-6H-dibenzo[b,d]pyran-6-one]
effect on cell proliferation, compound alone [1]: minimal effect | LPS-induced NF-κB activation in macrophages (NF-κB): reduced the NF-κB activation | Nrf2 expression, nuclear translocation and HO1 in macrophages (BMDM): upregulated Nrf2 expression and induced its nuclear translocation
